Assays:
E. coli ESBL Baa197 = test: Selective lysis test, OD600 turbidity (Example 1); type: cell-based, Escherichia coli; details: for % Change: OD600 vs control without meropenem
Experimental: (§1) An isolated colony from an overnight Tryptocase Soy Agar (TSA) plate of each bacterial strain was suspended in 1 ml Tryptocasc Soy Broth (TSB) in a 5 ml BD polystyrene round bottom tube. TSB cultures were incubated shaking at 37° C. overnight. Ten of the overnight culture was inoculated into lml TSB and incubated shaking at 37° C. for three hours. Two […] aliquots of each log-phase culture were then transferred to two 2 ml Eppendorf microcentrifuge tubes. One tube contained 5000 of Normal Saline (BD); the second tube contained 5000 Normal Saline with meropenem at 10 μg/ml (final concentration of meropenem of 6.67 10 μg/ml). Tubes were inverted and then incubated at 37° C. stagnant for thirty minutes. Then […] of lysis buffer (0.5% SDS in PSB) (final concentration of SDS of 0.125%) was added to each tube and the tubes were vortexed for 5 seconds. Post incubation, all tubes were spun at 10000 G for 5 minutes. Supernatant was decanted and the pellet resuspended in Normal Saline. Tubes were vortexed again. OD600 was measured using Eppendorf uvettes in a spectrophotometer. The delta between the OD600 of the normal saline control and the OD600 for the test sample exposed to meropenem in normal saline was used to determine susceptibility of the bacterial strain to meropenem.

E. coli ESBL 790 = test: Selective lysis test, OD600 turbidity (Example 1); type: cell-based, Escherichia coli
Experimental: as §1

E. coli 51422 = test: Selective lysis test, OD600 turbidity (Example 1); type: cell-based, Escherichia coli
Experimental: as §1

E. coli JM109 = test: Selective lysis test, OD600 turbidity (Example 1); type: cell-based, Escherichia coli
Experimental: as §1

K. oxy KPC 46532 = test: Selective lysis test, OD600 turbidity (Example 1); type: cell-based, Klebsiella oxytoca
Experimental: as §1
The tested resistant strains were Klebsiella pneumoniae carbapenemase (KPC)-producing bacteria (abbreviated “KPC”), KPC-producing Klebsiella oxytoca (abbreviated “KPC K. oxy), and Klebsiella pneumoniae producing Metallo-beta-lactamase-1 (NDM-1) (abbreviated “NDM”).

[1] = tested on: strains previously considered resistant to meropenem; test: Selective lysis OD600 test, summary over the strains of Table 2; type: cell-based, Klebsiella pneumoniae, Klebsiella oxytoca; details: 8 of the 9 strains of Table 2
Experimental: as §1, with “meropenem. […]” for “meropenem.”

K. oxy strain 43086 = test: Selective lysis test, BacUni QuickFISH staining (Example 3); type: cell-based, K. oxytoca; details: FIG. 4; K. oxy 43086; meropenem 10 μg/ml, 30 min, SDS lysis
From the text: An alternative to the spectrophotometer-based measurement of changes in turbidity for measuring cell lysis following treatment with the cell lysis conditions in Examples 1 and 2 is to stain samples using a stain that distinguishes between intact cells and lysed cells. In this example staining with BacUni QuickFISH™ was used to identify intact (i.e., non-lysed) cells. BacUN1 is a universal bacteria PNA probe that binds to an rRNA sequence present in most Gram-positive and Gram-negative bacteria. The PNA probe binds to universal rRNA in intact bacterial cells and the entire cell will appears green with fluorescent microscopy. If the bacterial cell had been lysed then the rRNA target would have been released from the bacterial cell and even of somewhat labeled it would not appear as a fluorescent bacterial cell.
An isolated colony from an overnight Tryptocase Soy Agar (TSA) plate of each bacteria was suspended in 1 ml Tryptocase Soy Broth (TSB) in a 5 ml BD polystyrene round bottom tube. TSB cultures were incubated at 37° C. overnight. Ten μl of overnight culture was inoculated into 1 ml TSB and incubated shaking at 37° C. for three hours. Two 250 μl aliquots of each log-phase culture was transferred to two 2 ml Eppendorf microcentrifuge tubes. […] The slide was viewed on fluorescence microscope using 60× oil immersion on Dual TxR/FITC. […]

K. pneumo BAA2146 (NDM+) = test: Selective lysis test, flow cytometry cell count (Example 5); type: cell-based, K. pneumoniae; design: key to R or S: R: meropenem resistant strain; S: meropenem sensitive strain
Experimental: (§2) An isolated colony from overnight Tryptocase Soy Agar (TSA) plate for each bacteria was suspended in 1 ml Tryptocase Soy Broth (TSB) in a 5 ml BD polystyrene round bottom tube. TSB cultures were incubated at 37° C. overnight. Ten μl of overnight culture was inoculated into 1 ml TSB and incubated shaking at 37° C. for three hours. Two 250 μl aliquots of each log-phase culture were transferred to two 2 ml Eppendorf microcentrifuge tubes. One tube contained 500 μl of Normal Saline (BD); the second tube contained 504.1 Normal Saline with meropenem at 10 μg/ml. Tubes were inverted then incubated at 37° C. stagnant for thirty minutes. An aliquot was removed at this point for flow cytometry measurement of the total cell count. Then 250 μl lysis buffer (0.5% SDS in PSB) was added to each tube and each tube was vortexed for 5 seconds. Post incubation, all tubes were spun at 10000 G for 5 minutes. Supernatant was decanted and the pellet resuspended in Normal Saline. Tubes were vortexed.
(§3) Re-suspended pellets were then diluted 20 times into a solution of 10 mM Tris-HCl pH=7.6, containing 2.5 μM SYTO 9 (stain permeable to all bacterial cells). Stained bacterial cells were analyzed by flow cytometry using the Guava EasyCyte™ Mini System equipped with a 488 nm diode laser, capillary flow cell, forward and side scatter detectors and fluorescence (green, yellow and red) detectors. Flow cytometry dot plots were acquired with CytoSoft (Guava ExpressPlus) software and cell counts were obtained.

K. pneumo 13882 (NDM−) = test: as above; type: cell-based, K. pneumoniae; design: key to R or S: R: meropenem resistant strain; S: meropenem sensitive strain
Experimental: as §2, §3

[2] = meropenem 10 μg/ml, 30 min, SDS lysis buffer + vortex
[3] = OD600 vs control without meropenem
[4] = K. pneumo BAA2146 (NDM+), 10 μg/ml Meropenem, Post-lysis + spin
[5] = K. pneumo 13882 (NDM−), 10 μg/ml Meropenem, Post-lysis + spin

## C[C@@H](O)[C@H]1C(=O)N2C(C(=O)O)=C(S[C@@H]3CN[C@H](C(=O)N(C)C)C3)[C@H](C)[C@H]12 [meropenem]
E. coli ESBL Baa197
  R or S: S (a percentage change of greater than about 85% indicates a strain is susceptible)
  % Change: 74%
E. coli ESBL Baa197; listed as Mero
  % Change: 74%
E. coli ESBL Baa197; [2]
  Mero OD600: 0.236
E. coli ESBL 790
  R or S: S (a percentage change of greater than about 85% indicates a strain is susceptible)
E. coli ESBL 790; [3]
  % Change: 87%
E. coli ESBL 790; [2]
  Mero OD600: 0.126
E. coli 51422
  R or S: S (a percentage change of greater than about 85% indicates a strain is susceptible)
E. coli 51422; [3]
  % Change: 98%
E. coli 51422; [2]
  Mero OD600: 0.031
E. coli JM109
  R or S: S (a percentage change of greater than about 85% indicates a strain is susceptible)
E. coli JM109; [3]
  % Change: 88%
E. coli JM109; [2]
  Mero OD600: 0.079
K. oxy KPC 46532
  R or S: S (a percentage change of greater than about 85% indicates a strain is susceptible)
K. oxy KPC 46532; [3]
  % Change: 71%
K. oxy KPC 46532; [2]
  Mero OD600: 0.259
[1]
  decrease of OD600 turbidity vs negative control: ≤ 18%
K. oxy strain 43086
  number of BacUni QuickFISH stained cells, treated vs not treated: significant reduction in the number of stained cells
K. pneumo BAA2146 (NDM+); [4]
  Cell Number/ml: 2.83e+06 mL⁻¹
  R or S: R
K. pneumo BAA2146 (NDM+); K. pneumo BAA2146 (NDM+), 10 μg/ml Meropenem, Pre-lysis
  Cell Number/ml: 3.04e+06 mL⁻¹
K. pneumo BAA2146 (NDM+); K. pneumoniae BAA2146 (NDM+), meropenem treated sample, post-lysis vs pre-lysis
  reduction in cell number after lysis and centrifugation: 7%
K. pneumo 13882 (NDM−); [5]
  Cell Number/ml: 241000 mL⁻¹
  R or S: S
K. pneumo 13882 (NDM−); K. pneumo 13882 (NDM−), 10 μg/ml Meropenem, Pre-lysis
  Cell Number/ml: 2.38e+06 mL⁻¹
K. pneumo 13882 (NDM−); K. pneumoniae 13882 (NDM−), meropenem treated sample, post-lysis vs pre-lysis
  reduction in cell number after lysis and centrifugation: 90%

— patent US20160281125A1, “ANTIMICROBIAL COMPOUND SUSCEPTIBILITY TEST” (priority 2013, published 2016)
